Laboratory results published in patent publication US20210317140A1, “Heterocyclic Compounds and Methods of Use” (MEDIVATION TECHNOLOGIES, INC, priority 2013, published 2021).
pIC50: −log10 of the molar value.

Experiments:
[1] = system: SUDHL6 cells; test: Cell anti-proliferation assay ([3H] thymidine); format: cell-based; conditions: Homo sapiens, SU-DHL-6, IC50 range
Procedure: Compounds of the invention were profiled in a B-lymphocyte anti-proliferation assay using SUDHL6 cells. On Day 0, SUDHL cells (7,500) were plated in RPMI media with FBS medium in a 96-well plate. On Day 1, Compounds of the invention were charged on top of the plated cells with a 1% DMSO final concentration. On Day 3, [^3H] Thymidine was added at 100 nCi/well. On Day 4, the cells were harvested using a cell harvester on a GF/C filter mat and dried in a hot air oven. Cell readout was obtained using a scintillation counter, and the activity of the compound was determined as an IC50 value.

[2] = target: T1, PI3Kγ (Homo sapiens, UniProt P48736); test: PI3Kγ isoform profiling (PI3Kδ protocol); format: biochemical; conditions: for pIC50: 10 dose IC50; for PI3Kγ @ 0.3 μM (% Inh): 0.3 μM compound
T1 construct: purchased Reaction Biology Corporation
T1 sequence (P48736 whole entry, canonical isoform): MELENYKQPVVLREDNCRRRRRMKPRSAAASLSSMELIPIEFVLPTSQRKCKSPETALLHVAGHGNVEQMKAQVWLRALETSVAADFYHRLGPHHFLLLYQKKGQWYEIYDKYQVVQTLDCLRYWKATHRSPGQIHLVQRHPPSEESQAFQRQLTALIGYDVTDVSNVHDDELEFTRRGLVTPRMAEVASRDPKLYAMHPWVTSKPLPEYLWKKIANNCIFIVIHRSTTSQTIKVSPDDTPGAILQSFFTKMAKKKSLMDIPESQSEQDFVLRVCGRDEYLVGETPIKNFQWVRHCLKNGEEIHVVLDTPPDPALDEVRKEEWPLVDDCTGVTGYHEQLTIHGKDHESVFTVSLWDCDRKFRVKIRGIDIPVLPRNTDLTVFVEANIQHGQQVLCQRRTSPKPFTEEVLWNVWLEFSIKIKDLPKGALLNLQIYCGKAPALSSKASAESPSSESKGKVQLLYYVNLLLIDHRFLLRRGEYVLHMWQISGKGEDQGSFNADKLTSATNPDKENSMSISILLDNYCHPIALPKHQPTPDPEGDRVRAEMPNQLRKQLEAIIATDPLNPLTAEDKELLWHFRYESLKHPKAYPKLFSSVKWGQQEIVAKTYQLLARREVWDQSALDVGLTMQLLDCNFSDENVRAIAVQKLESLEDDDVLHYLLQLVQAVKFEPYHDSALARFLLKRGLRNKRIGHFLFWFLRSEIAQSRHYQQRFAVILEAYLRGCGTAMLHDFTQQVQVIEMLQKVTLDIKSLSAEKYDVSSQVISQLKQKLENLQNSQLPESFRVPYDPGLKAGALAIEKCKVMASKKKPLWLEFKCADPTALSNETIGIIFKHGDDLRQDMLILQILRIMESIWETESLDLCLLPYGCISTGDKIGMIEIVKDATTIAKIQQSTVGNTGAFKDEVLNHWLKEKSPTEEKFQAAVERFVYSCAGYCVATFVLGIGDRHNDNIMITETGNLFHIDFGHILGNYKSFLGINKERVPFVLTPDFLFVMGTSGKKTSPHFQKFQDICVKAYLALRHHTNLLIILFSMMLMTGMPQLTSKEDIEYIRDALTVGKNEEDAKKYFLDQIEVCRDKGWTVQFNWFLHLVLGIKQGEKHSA
Source text: PI3Kδ assay: The PIP3 product is detected by displacement of biotin-PIP3 from an energy transfer complex consisting of Europium labeled anti-GST monoclonal antibody, a GST-tagged pleckstrin homology (PH) domain, biotinylated PIP3 and Streptavidin-Allophycocyanin (APC). Excitation of Europium in the complex results in an energy transfer to the APC and a fluorescent emission at 665 nm. The PIP3 product formed by PI 3-Kinase(h) activity displaces biotin-PIP3 from the complex resulting in a loss of energy transfer and thus a decrease in signal. This is a 3-step reaction: First, the kinase reaction with PIP2 substrate is carried out in the presence of ATP (10 μM), and the reaction is quenched with stop Solution, and then finally detect by adding Detection Mixture followed by incubation (10 min). Reaction procedure: 1) Prepare substrate in freshly prepared Reaction Buffer. 2) Deliver kinase into the substrate solution and gently mix. 3) Deliver compounds in 100% DMSO (1 μM) into the kinase reaction mixture by Acoustic technology (Echo550; nanoliter range), incubate for 10 min at RT. 4) Deliver ATP into the reaction mixture to initiate the reaction. 5) Incubate for 30 min at 30° C. 6) Quench the reaction with Stop Solution. 7) Add Detection Mixture, and incubate for overnight. 8) Measure HTRF: Ex=320 nm, ratio of Em=615 nm and Em=665 nm. The emission ratio is converted into μM PIP3 production based on PIP3 standard curves. The nonlinear regression to obtain the standard curve and IC50 values are performed using Graphpad Prism software. Assay Buffer: HEPES 50 mM (pH7.0), NaN3 0.02%, BSA 0.01%, Orthovanadate 0.1 mM, 1% DMSO. Detection buffer: HEPES 10 mM (pH7.0), BSA 0.02%, KF 0.16 M, EDTA 4 mM. Substrate: 10 μM PIP2 substrate (PI(4,5)P2).
Compounds of the invention were profiled in a 10 dose IC50 panel against PI3Kα, PI3Kβ, and PI3Kγ kinases, provided by Reaction Biology Corporation, applied to the PI3Kδ protocol provided in Example B1.

[3] = target: T2, ITK (Homo sapiens, UniProt Q08881); test: ITK kinase profiling (BTK protocol); format: biochemical; conditions: for pIC50: 10 dose IC50; for ITK @ 0.3 μM (% Inh): 0.3 μM compound
T2 construct: purchased Reaction Biology Corporation
T2 sequence (Q08881 1-620): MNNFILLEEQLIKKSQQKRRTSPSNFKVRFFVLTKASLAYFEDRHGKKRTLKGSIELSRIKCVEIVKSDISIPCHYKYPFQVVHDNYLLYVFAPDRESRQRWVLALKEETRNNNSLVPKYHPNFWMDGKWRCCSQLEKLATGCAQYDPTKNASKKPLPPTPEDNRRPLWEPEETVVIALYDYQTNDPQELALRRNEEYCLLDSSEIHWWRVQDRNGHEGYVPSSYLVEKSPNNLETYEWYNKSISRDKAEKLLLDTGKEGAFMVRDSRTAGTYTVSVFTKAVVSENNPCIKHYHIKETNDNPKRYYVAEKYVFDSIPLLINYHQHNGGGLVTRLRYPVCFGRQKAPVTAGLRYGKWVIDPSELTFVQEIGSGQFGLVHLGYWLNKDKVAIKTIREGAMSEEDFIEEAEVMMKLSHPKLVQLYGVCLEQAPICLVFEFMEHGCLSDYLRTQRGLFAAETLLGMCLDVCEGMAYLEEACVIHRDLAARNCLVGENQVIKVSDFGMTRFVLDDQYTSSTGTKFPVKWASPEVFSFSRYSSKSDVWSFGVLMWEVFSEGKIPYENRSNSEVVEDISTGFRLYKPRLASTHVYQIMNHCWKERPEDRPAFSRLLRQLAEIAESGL
Procedure: BTK assay: In vitro profiling protein kinases was performed using the “HotSpot” assay platform. Briefly, specific kinase/substrate pairs along with required cofactors were prepared in reaction buffer. Compounds were prepared as 10 mM stock solutions in DMSO. Compounds were delivered into the reaction, followed 15-20 minutes later by addition of a mixture of ATP (Sigma, St. Louis Mo.) and ^33P ATP (Perkin Elmer, Waltham Mass.) to a final concentration of 10 μM. […] IC50 values and curve fits were obtained using Prism (GraphPad Software). Buffer Conditions: 20 mM Hepes (pH 7.5), 10 mM MgCl2, 1 mM EGTA, 0.02% Brij35, 0.02 mg/mL BSA, 0.1 mM Na3VO4, 2 mM DTT, 1% DMSO.

Compound `Nc1ncnc2c1c(-c1cc(O)cc(F)c1)nn2C1Cc2ccccc2C1` [compound 3, 3-(4-amino-1-(2,3-dihydro-1H-inden-2-yl)-1H-pyrazolo[3,4-d]pyrimidin-3-yl)-5-fluorophenol] has a pIC50 [1] of 5.00 to 6.00, a pIC50 [2] of 7.27 and a pIC50 [3] of 4.33.
Work on `Nc1ncnc2c1c(-c1cc(O)cc(F)c1)nn2C1CCc2ccccc2C1` (stereo not drawn) [compound 6, 3-(4-amino-1-(1,2,3,4-tetrahydronaphthalen-2-yl)-1H-pyrazolo[3,4-d]pyrimidin-3-yl)-5-fluorophenol] yielded a pIC50 [1] of 5.00 to 6.00, a pIC50 [2] of 6.91 and a pIC50 [3] of 4.79.
With `Nc1ncnc2c1c(-c1cc(O)cc(F)c1)nn2C1Cc2ccc(F)cc2C1` (stereo not drawn) [compound 57, 3-[4-amino-1-(5-fluoro-2,3-dihydro-1H-inden-2-yl)-1H-pyrazolo[3,4-d]pyrimidin-3-yl]-5-fluorophenol] the “PI3Kγ @ 0.3 μM (% Inh)” value [2] was 30.85 % Inh and the “ITK @ 0.3 μM (% Inh)” value [3] was 5.31 % Inh.
With `Nc1ncnc2c1c(-c1cc(O)c(F)c(Cl)c1)cn2C1Cc2ccccc2C1` [compound 110, 5-[4-amino-7-(2,3-dihydro-1H-inden-2-yl)-7H-pyrrolo[2,3-d]pyrimidin-5-yl]-3-chloro-2-fluorophenol] the “PI3Kγ @ 0.3 μM (% Inh)” value [2] was 47.05 % Inh and the “ITK @ 0.3 μM (% Inh)” value [3] was −3.49 % Inh.
`N#Cc1cc(-c2cn(C3Cc4ccccc4C3)c3ncnc(N)c23)cc(O)c1F` [compound 115, 5-[4-amino-7-(2,3-dihydro-1H-inden-2-yl)-7H-pyrrolo[2,3-d]pyrimidin-5-yl]-2-fluoro-3-hydroxybenzonitrile] was tested, and the “PI3Kγ @ 0.3 μM (% Inh)” value [2] was 59.21 % Inh and the “ITK @ 0.3 μM (% Inh)” value [3] was −9.43 % Inh.
